Several values for one entry are separate records, joined by “and”; a condition that tells them apart may be missing. Equal values may be shown once.
Key:
[1] = Body weight changes in rat models of Aβ1-40-induced AD; format: in vivo; details: Aβ1-40 AD rats, treated group; baseline before the operation
Excerpt: Male Wistar rats (300-500 g) were used. The animals were maintained under standard conditions in the vivarium of the ESC “Institute of Biology and Medicine” of Taras Shevchenko National University of Kyiv. They were given ad libitum access to food and water.
Alzheimer's Disease was induced in old male rats (14 months old) by giving them intrahippocampal injections of aggregated Amyloid Beta (Aβ 1-40) Peptide (human) (Cayman Chemical Company) and Amyloid Beta (Aβ 25-35) Peptide (human) (Tocris Bioscience, Brostol). Aβ1-40 and Aβ 25-35 were dissolved in bidistilled water to the concentration of 15 μmol/L and incubated at 37° C. for 24 hours for aggregation. Aβ conglomerates were broken up by ultrasound and sterilized immediately prior to injection.
Rats were anesthetized using a mixture of ketamine (75 mg/kg, diluted in sterile water for injection, Sigma, USA) and 2% xylazine (100 μl/rat, Alfasan International B.V., Netherlands) administered intraperitoneally in a total volume of 1 ml. A rat was placed in a stereotaxic apparatus (SEZH-4) modified for rats. The animal was then scalped from the point of intersection of the sagittal suture with bregma (zero point): 2 mm distally, 2 mm laterally and 3.5 mm in depth and a trephine opening was made with an injection needle, directly into the hippocampus. […]

CD86 = CD86 expression in circulating phagocytes, Aβ25-35 model; format: in vivo, rat; details: Aβ25-35 AD rats
Experimental: The phenotypic profile of phagocytes of various localization was characterized by the expression of markers of functional maturity and metabolic polarization (CD206 and CD86), which was determined by flow cytometry and the use of monoclonal antibodies of appropriate specificity marked with fluorescent dyes (Abcam, Becton Dickinson).

[2] = tested on: rat models of Aβ1-40-induced Alzheimer's disease; experiment: Barnes maze memory and cognitive flexibility tests, Aβ1-40-induced AD rats; format: in vivo; details: Aβ1-40 model; for Time spent near the entrance to the “escape box”, after surgery / Time spent near the entrance to the “escape box”, % of changes / Time spent near the entrance to the “escape box”, before surgery: cognitive flexibility; for Time spent near the entrance to the “escape box”, after surgery / Time spent to find the “escape box”, after surgery: after surgery and treatment; for Time spent near the entrance to the “escape box”, after surgery / Time spent near the entrance to the “escape box”, before surgery / Time spent to find the “escape box”, after surgery / Time spent to find the “escape box”, before surgery: M ± SD; for Time spent near the entrance to the “escape box”, % of changes / Time spent to find the “escape box”, % of changes: after vs before surgery; for Time spent near the entrance to the “escape box”, before surgery / Time spent to find the “escape box”, before surgery: baseline before surgery
Experimental: Kinga Gawel et al., Assessment of spatial learning and memory in the Barnes maze task in rodents-methodological consideration, Naunyn Schmiedebergs Arch Pharmacol. 2019; 392(1): 1-18. doi: 10.1007/s00210-018-1589-y.
The other holes remained open.
The rat was allowed to move freely around the table for 2-3 minutes.
Fifteen minutes after the habituation session, on the 2nd, 3rd and 4th days of the experiment, the task training was repeated 4 times every 15 minutes (min) (3 min on the table surface+1 min in the “escape box” with the light off).
The table surface was disinfected after each trial.
18 days after the operation, the animals had another 4-day training session (probe phase) with a changed location of the “escape box”.
The following time periods were measured in seconds: 1) the time the animal spent to find the entrance to the “escape box” (assessment of spatial learning and spatial memory associated with the hippocampal function); 2) the time the animal spent near the entrance (assessment of cognitive flexibility associated with the function of the frontal cortex of the brain)—the less time the animal spends near the closed entrance, the quicker it understands that it is necessary to look for escape elsewhere.

[3] = tested on: rat models of Aβ25-35-induced Alzheimer's disease; experiment: Barnes maze memory and cognitive flexibility tests, Aβ25-35-induced AD rats; details: for Time spent near the entrance to the “escape box”, after surgery / Time spent near the entrance to the “escape box”, % of changes / Time spent near the entrance to the “escape box”, before surgery / Time spent to find the “escape box”, after surgery / Time spent to find the “escape box”, % of changes / Time spent to find the “escape box”, before surgery: Aβ25-35 model; for Time spent near the entrance to the “escape box”, after surgery / Time spent near the entrance to the “escape box”, % of changes / Time spent near the entrance to the “escape box”, before surgery: cognitive flexibility; for Time spent near the entrance to the “escape box”, after surgery / Time spent to find the “escape box”, after surgery: after surgery and treatment; for Time spent near the entrance to the “escape box”, after surgery / Time spent near the entrance to the “escape box”, before surgery / Time spent to find the “escape box”, after surgery / Time spent to find the “escape box”, before surgery: M ± SD; for Time spent near the entrance to the “escape box”, % of changes / Time spent to find the “escape box”, % of changes: after vs before surgery; for Time spent near the entrance to the “escape box”, before surgery / Time spent to find the “escape box”, before surgery: baseline before surgery
Excerpt: An animal learns to remember the location of the target zone (“escape box”) using peripheral visual cues in the testing area as reference points.
Barnes maze used consisted of a circular table with 16 circular holes around its circumference. Peripheral visual cues, such as black marks (a triangle on one wall and two parallel strips on the opposite wall), were placed for better orientation of the animal. Under one of the holes an “escape box” containing standard filler for animals was fixed. Each animal was assigned its number of the hole to which the “escape box” was fixed. The other holes remained open. Before performing the probe phase (after the operation), the number of the hole was changed.
On the 1st day of the experiment, during the first training of rats, a habituation session was performed, which was not repeated during the probe phase. A rat was placed in the center of the circular table and kept under a non-transparent hood for 10 seconds. The light above the table was then turned on and the hood lifted. The rat was allowed to move freely around the table for 2-3 minutes.
Fifteen minutes after the habituation session, on the 2nd, 3rd and 4th days of the experiment, the task training was repeated 4 times every 15 minutes (min) (3 min on the table surface+1 min in the “escape box” with the light off). The time during which the animal managed to reach the “escape box” was recorded at each trial.
Short-term memory of the animals was tested on the 5th day, and long-term memory was tested on the 9th day (5th day after the last training). All the holes of the maze were closed, and the rat was allowed to freely explore the open arena for 90 seconds to find “its” corresponding hole on the table top (under which the “escape box” was previously located) based on previously acquired skills. The amount of time the animal spent searching for the correct hole, and the time it spent near the hole was recorded. The table surface was disinfected after each trial.
18 days after the operation, the animals had another 4-day training session (probe phase) with a changed location of the “escape box”. As in the case before the operation, short-term memory was tested on the 5th day, and long-term memory was tested on the 9th day (5th day after the last training session).

[4] = tested on: tyrosine hydroxylase (TH); experiment: Immunohistochemical identification of tyrosine hydroxylase in hippocampus, Aβ1-40-induced AD rats; format: in vivo, rat; details: Aβ1-40 AD rats; TH-positive hippocampal cells; individual animals 661 E, F, G; listed as Zn
Experimental: (§1) Degeneration of the hippocampal neurons was assessed using immunohistochemical analysis for the expression level of tyrosine hydroxylase (TH). Immunohistochemical staining was performed using primary anti-TH antibodies at a 1:200 dilution (Millipore, AB152). Endogenous peroxidase activity was blocked with a blocking reagent (Dako, EnVision Flex, DM821). Nonspecific antibody binding was blocked using 4% dry milk dissolved in Tris-buffered saline (TBS) containing 0.2% Triton X-100.
(§2) The primary antibody was diluted in TBS containing 0.2% Triton X-100 and applied to tissue sections. The sections were then incubated overnight (+4° C.). Secondary antibodies (anti-rabbit biotinylated antibodies, 1:200) were incubated for 60 minutes. The immunoreaction was developed using diaminobenzidine (Dako, EnVision) applied for 5 minutes. The results of immunohistochemical staining were evaluated at the light-optical level using a Zeiss Primo Star microscope. The intensity of TH-positive staining was evaluated using a semiquantitative scoring system as described in the Quantitative Scoring Method ([http://www.ihcworld.com/ihc_scoring.htm]) taking into account the number of positive (stained) cells and the intensity of staining (Table 1). The results were presented as a quick score (Q) calculated by the following formula: Q=P×I, where P is the percentage of positive cells and I is the staining intensity.

[5] = tested on: tyrosine hydroxylase (TH); experiment: Immunohistochemical identification of tyrosine hydroxylase in hippocampus, Aβ25-35-induced AD rats; format: in vivo, rat; details: Aβ25-35 AD rats
Experimental: as §1, §2

[6] = long-term memory, 5 days following training
[7] = short-term memory, 24 hours following training

Substance: ^64Zn-aspartate
- body weight before the operation [1]: 432.1 ± 29.7 g
- expression of CD86 by circulating phagocytes (CD86): elevated
- fraction of CD86+ cells among circulating phagocytes (CD86): increase
- Time spent near the entrance to the “escape box”, after surgery ([2]; 24 hours following training): 22.57 ± 7.77 s
- Time spent near the entrance to the “escape box”, % of changes ([2]; 24 hours following training): −31.6%
- Time spent near the entrance to the “escape box”, before surgery ([2]; 24 hours following training): 33 ± 7.39 s
- Time spent near the entrance to the “escape box”, after surgery ([2]; 5 days following training): 29 ± 6.14 s
- Time spent near the entrance to the “escape box”, % of changes ([2]; 5 days following training): 23.03%
- Time spent near the entrance to the “escape box”, before surgery ([2]; 5 days following training): 23.57 ± 6.61 s
- Time spent to find the “escape box”, after surgery [2, 6]: 5 ± 1.54 s
- Time spent to find the “escape box”, % of changes [2, 6]: −70.59%
- Time spent to find the “escape box”, before surgery [2, 6]: 17 ± 6.74 s
- Time spent to find the “escape box”, after surgery [2, 7]: 4.14 ± 0.74 s
- Time spent to find the “escape box”, % of changes [2, 7]: −42.04%
- Time spent to find the “escape box”, before surgery [2, 7]: 7.14 ± 1.49 s
- tendency towards impairment of long-term memory ([3]; Aβ25-35 AD rats): not improved
- Time spent near the entrance to the “escape box”, after surgery ([3]; 24 hours following training): 30.67 ± 7.32 s
- Time spent near the entrance to the “escape box”, % of changes ([3]; 24 hours following training): 12.2%
- Time spent near the entrance to the “escape box”, before surgery ([3]; 24 hours following training): 27.33 ± 4.06 s
- Time spent near the entrance to the “escape box”, after surgery ([3]; 5 days following training): 18.17 ± 5.38 s
- Time spent near the entrance to the “escape box”, % of changes ([3]; 5 days following training): −40.76%
- Time spent near the entrance to the “escape box”, before surgery ([3]; 5 days following training): 30.67 ± 4.32 s
- Time spent to find the “escape box”, after surgery [3, 6]: 21.83 ± 12.53 s
- Time spent to find the “escape box”, % of changes [3, 6]: 48.86%
- Time spent to find the “escape box”, before surgery [3, 6]: 14.67 ± 3.53 s
- Time spent to find the “escape box”, after surgery [3, 7]: 8.33 ± 5.76 s
- Time spent to find the “escape box”, % of changes [3, 7]: −37.5%
- Time spent to find the “escape box”, before surgery [3, 7]: 13.33 ± 7.8 s
- Q = P × I [4]: 4 and 2 and 6
- Q = P × I ([5]; TH-positive hippocampal cells, individual animals 663 A, B, listed as Zn): 6 and 4
- staining intensity of TH-positive cells ([5]; hippocampus): no effect
- tyrosine hydroxylase expression, Q value (group mean) ([5]; hippocampus): 5.0±1.4

From patent US20240285680A1, “METHOD OF TREATING ALZHEIMER'S DISEASE” (Vector Vitale IP LLC, priority 2021, published 2024)
